Results: patent US20240208961A1, “EIF4E INHIBITORS AND USES THEREOF” (PIC Therapeutics, Inc., priority 2022, published 2024)
Where “and” joins values, the source holds several entries; their conditions need not be identical. Equal entries are not always repeated. Where two headings read alike, the source gives them in different places.

Tests used:
[1] = Pharmacokinetic studies of certain compounds in female Balb/c mice (Example 5); format: in vivo
Description: Pharmacokinetic studies were performed using Balb/c mice, 15-20 g, 6-9 weeks, female, N=9, purchased from Jihui Laboratory Animal Co. LTD. For compound I-29, Balb/c mice, 19-21 g, 9-11 weeks, female, N=9, were used. The mice were fasted overnight and fed at 4 h post dosing.
Animals were dosed via oral gavage (PO) or tail vein injection (IV) with compound. Sampling occurred at 0.083, 0.25, 0.5, 1, 2, 4, 8, and 24 h post dose (8 time points). The animals were restrained manually at the designated time points. Approx. […] of blood was taken from the animals via facial vein for semi-serial bleeding into tubes with K2EDTA. Blood samples were put on ice and centrifuged at 4° C. (2000 g, 5 min) to obtain plasma within 15 min after sample collection. Plasma samples were stored in dry ice temporarily and at approximately −70° C. until analysis.
For oral gavage, the compound was dosed as a suspension in 1% sodium carboxymethyl cellulose (CMC) and 0.2% Tween 80 in water. For 23.8 mg/kg and 30 mg/kg doses, 3 mg/mL was used; for 50 mg/kg doses, 5 mg/mL was used; and for 100 mg/kg doses, 10 mg/mL was used.
For IV administration, the compound was dosed as a solution in 5% DMSO, 5% Solutol HS15 and 90% saline. For 1 mg/kg and 1.48 mg/kg doses, 0.2 mg/mL was used.
Plasma samples were analyzed using LC-MS using a calibration curve of known concentrations.
The results of these studies are summarized in Tables 11-21 below and in FIGS. 2-8. […] BQL=below quantifiable limit for compound in female Balb/c mouse plasma samples. NA=not available. PK parameters were estimated by non-compartmental model using WinNonlin 8.2. If the adjusted rsq (linear regression coefficient of the concentration value on the terminal phase) was less than 0.9, T1/2 might not have been accurately estimated. F value was determined by the following equation: • If AUClast/AUCINF>80%:
F=(AUCINF-EX×DOSEIV)/(AUCINF-IV×DOSEEX)[…] • If AUClast/AUCINF<80% or AUCINF not available:
F=(AUClast-EX×DOSEIV)/(AUClast-IV×DOSEEX)*1000

[2] = system: MM.1S; experiment: Cell viability assay, suspension cell line, 5 day Alamar Blue (Example 8): MM.1S; format: cell-based; settings: Homo sapiens, MM1.S, 120 h, Multiple Myeloma (Steroid Sensitive) Cancer Cell
Description: (§1) Cell viability assays were performed on certain compounds of the disclosure, according to the following procedure.
(§2) Cell line specific media conditions used:
(§3) The procedure for suspension cell line compound screening was as follows:
(§4) Day 1: Cell Seeding and Compound Dosing
(§5) • Cells were seeded 2×10^5 in 96-well cell culture treated tissue culture plates: 87.5 μL/well; MM.1 S, MM,1R, NCIH510A. • 5-fold serial dilution (8 point) of each compound in DMSO 0-25 mM in compound storage plates was prepared (stored at −80° C. if not to be used immediately). • Cells were rinsed with 1% FBS Media (appropriate to cell line as described above) and replaced with 87.5 μL media prior to dosing. • DMSO compound dilution series was diluted in 1% FBS media (appropriate to cell line as described above)—2 μL in 248 μL to give an 8× final concentration. • Cells were dosed 12.5 μL/well in triplicate to give final dose curved on cells 0-25 μM. • Media blank 100 μL/well×8 was set up. • All plates were incubated at 37° C.
(§6) Day 6: 5 Day Viability Assay
(§7) • Alamar Blue viability reagent was added (10 μL per well) and incubated for 3 hours at 37° C. prior to fluorescence detection (Ex560 nm/Em590 nm) on a Varioskan Lux multimode plate reader.
(§8) Results from cell viability assays are summarized in Table 23, wherein A represents IC50≤1 μM; B represents 1 μM<IC50≤8 μM; and C represents IC50>8 μM. Blank cells indicate that the compound was not tested in a particular assay.

[3] = system: MM.1R; experiment: Cell viability assay, suspension cell line, 5 day Alamar Blue (Example 8): MM.1R; format: cell-based; settings: 120 h, Multiple Myeloma (Steroid Resistant) Cancer Cell
Description: as §1, §2, §3, §4, §5, §6, §7, §8

[4] = I-29 IV 1.48 mg/kg, 4 hr, BQL = below quantifiable limit of 3.00 ng/mL
[5] = I-29 IV 1.48 mg/kg, 8 hr, BQL = below quantifiable limit of 3.00 ng/mL
[6] = I-29 IV 1.48 mg/kg, 24 hr, BQL = below quantifiable limit of 3.00 ng/mL
[7] = I-29 PO 23.8 mg/kg, 24 hr, BQL = below quantifiable limit of 3.00 ng/mL
[8] = mouse, plasma, I-29 IV 1.48 mg/kg
[9] = mouse, plasma, I-29 PO 23.8 mg/kg

- Plasma concentration Individual ([1]; I-29 IV 1.48 mg/kg, 0.083 hr, 1.48 mg/kg): 641 ng/mL and 603 ng/mL
- Plasma concentration Individual ([1]; I-29 IV 1.48 mg/kg, 0.25 hr, 1.48 mg/kg): 121 ng/mL and 162 ng/mL and 336 ng/mL
- Plasma concentration Individual ([1]; I-29 IV 1.48 mg/kg, 0.5 hr, 1.48 mg/kg): 71.2 ng/mL and 51.0 ng/mL
- Plasma concentration Individual ([1]; I-29 IV 1.48 mg/kg, 1 hr, 1.48 mg/kg): 15.9 ng/mL and 81.1 ng/mL and 29.6 ng/mL
- Plasma concentration Individual ([1]; I-29 IV 1.48 mg/kg, 2 hr, 1.48 mg/kg): 3.54 ng/mL and 4.97 ng/mL and 7.24 ng/mL
- Plasma concentration Individual [1, 4]: BQL
- Plasma concentration Mean [1, 4]: BQL
- Plasma concentration Individual [1, 5]: BQL
- Plasma concentration Mean [1, 5]: BQL
- Plasma concentration Individual [1, 6]: BQL
- Plasma concentration Mean [1, 6]: BQL
- F ([1]; I-29 PO 23.8 mg/kg vs IV 1.48 mg/kg): 67.3%
- Plasma concentration Individual ([1]; I-29 PO 23.8 mg/kg, 0.083 hr, 23.8 mg/kg): 39.6 ng/mL and 53.6 ng/mL
- Plasma concentration Individual ([1]; I-29 PO 23.8 mg/kg, 0.25 hr, 23.8 mg/kg): 147 ng/mL and 146 ng/mL
- Plasma concentration Individual ([1]; I-29 PO 23.8 mg/kg, 0.5 hr, 23.8 mg/kg): 344 ng/mL and 464 ng/mL
- Plasma concentration Individual ([1]; I-29 PO 23.8 mg/kg, 1 hr, 23.8 mg/kg): 237 ng/mL and 618 ng/mL and 703 ng/mL
- Plasma concentration Individual ([1]; I-29 PO 23.8 mg/kg, 2 hr, 23.8 mg/kg): 620 ng/mL and 640 ng/mL
- Plasma concentration Individual ([1]; I-29 PO 23.8 mg/kg, 4 hr, 23.8 mg/kg): 147 ng/mL and 218 ng/mL
- Plasma concentration Individual ([1]; I-29 PO 23.8 mg/kg, 8 hr, 23.8 mg/kg): 106 ng/mL and 75.9 ng/mL
- Plasma concentration Individual [1, 7]: BQL
- Plasma concentration Mean [1, 7]: BQL
- concentration at 0.083 hr ([1]; female, Balb/c, mouse, plasma, iv, 1.48 mg/kg, I-29 IV 1.48 mg/kg, 0.083 hr, read-out: Plasma concentration Individual): 558 ng/mL
- concentration at 0.083 hr ([1]; female, Balb/c, mouse, plasma, iv, 1.48 mg/kg, I-29 IV 1.48 mg/kg, 0.083 hr, read-out: Plasma concentration Mean): 601 ng/mL
- concentration at 0.25 hr ([1]; female, Balb/c, mouse, plasma, iv, 1.48 mg/kg, I-29 IV 1.48 mg/kg, 0.25 hr, read-out: Plasma concentration Mean): 206 ng/mL
- concentration at 0.5 h ([1]; female, Balb/c, mouse, plasma, iv, 1.48 mg/kg, I-29 IV 1.48 mg/kg, 0.5 hr, read-out: Plasma concentration Individual): 95.5 ng/mL
- concentration at 0.5 h ([1]; female, Balb/c, mouse, plasma, iv, 1.48 mg/kg, I-29 IV 1.48 mg/kg, 0.5 hr, read-out: Plasma concentration Mean): 72.6 ng/mL
- concentration at 1 h ([1]; female, Balb/c, mouse, plasma, iv, 1.48 mg/kg, I-29 IV 1.48 mg/kg, 1 hr, read-out: Plasma concentration Mean): 42.2 ng/mL
- concentration at 2 hr ([1]; female, Balb/c, mouse, plasma, iv, 1.48 mg/kg, I-29 IV 1.48 mg/kg, 2 hr, read-out: Plasma concentration Mean): 5.25 ng/mL
- concentration at 0.083 hr ([1]; female, Balb/c, mouse, plasma, po, 23.8 mg/kg, I-29 PO 23.8 mg/kg, 0.083 hr, read-out: Plasma concentration Individual): 31.6 ng/mL
- concentration at 0.083 hr ([1]; female, Balb/c, mouse, plasma, po, 23.8 mg/kg, I-29 PO 23.8 mg/kg, 0.083 hr, read-out: Plasma concentration Mean): 41.6 ng/mL
- concentration at 0.25 hr ([1]; female, Balb/c, mouse, plasma, po, 23.8 mg/kg, I-29 PO 23.8 mg/kg, 0.25 hr, read-out: Plasma concentration Individual): 160 ng/mL
- concentration at 0.25 hr ([1]; female, Balb/c, mouse, plasma, po, 23.8 mg/kg, I-29 PO 23.8 mg/kg, 0.25 hr, read-out: Plasma concentration Mean): 151 ng/mL
- concentration at 0.5 hr ([1]; female, Balb/c, mouse, plasma, po, 23.8 mg/kg, I-29 PO 23.8 mg/kg, 0.5 hr, read-out: Plasma concentration Individual): 305 ng/mL
- concentration at 0.5 hr ([1]; female, Balb/c, mouse, plasma, po, 23.8 mg/kg, I-29 PO 23.8 mg/kg, 0.5 hr, read-out: Plasma concentration Mean): 371 ng/mL
- concentration at 1 hr ([1]; female, Balb/c, mouse, plasma, po, 23.8 mg/kg, I-29 PO 23.8 mg/kg, 1 hr, read-out: Plasma concentration Mean): 519 ng/mL
- concentration at 2 hr ([1]; female, Balb/c, mouse, plasma, po, 23.8 mg/kg, I-29 PO 23.8 mg/kg, 2 hr, read-out: Plasma concentration Individual): 554 ng/mL
- concentration at 2 hr ([1]; female, Balb/c, mouse, plasma, po, 23.8 mg/kg, I-29 PO 23.8 mg/kg, 2 hr, read-out: Plasma concentration Mean): 605 ng/mL
- concentration at 4 hr ([1]; female, Balb/c, mouse, plasma, po, 23.8 mg/kg, I-29 PO 23.8 mg/kg, 4 hr, read-out: Plasma concentration Individual): 187 ng/mL
- concentration at 4 hr ([1]; female, Balb/c, mouse, plasma, po, 23.8 mg/kg, I-29 PO 23.8 mg/kg, 4 hr, read-out: Plasma concentration Mean): 184 ng/mL
- concentration at 8 hr ([1]; female, Balb/c, mouse, plasma, po, 23.8 mg/kg, I-29 PO 23.8 mg/kg, 8 hr, read-out: Plasma concentration Individual): 57.1 ng/mL
- concentration at 8 hr ([1]; female, Balb/c, mouse, plasma, po, 23.8 mg/kg, I-29 PO 23.8 mg/kg, 8 hr, read-out: Plasma concentration Mean): 79.7 ng/mL
- AUC(0-inf) [1, 8]: 225 ng·h/mL
- AUC(0-t) [1, 8]: 222 ng·h/mL
- C0 [1, 8]: 1020 ng/mL
- MRT inf [1, 8]: 0.33 h
- MRT last [1, 8]: 0.304 h
- clearance [1, 8]: 110 mL/min/kg
- half-life [1, 8]: 0.352 h
- Vd ([1]; mouse, plasma, I-29 IV 1.48 mg/kg, read-out: Vss): 2.18 L/kg
- AUC(0-inf) [1, 9]: 2430 ng·h/mL
- AUC(0-t) [1, 9]: 2180 ng·h/mL
- Cmax [1, 9]: 605 ng/mL
- MRT inf [1, 9]: 3.51 h
- MRT last [1, 9]: 2.64 h
- Tmax [1, 9]: 2 h
- half-life [1, 9]: 2.17 h
- IC50 [2]: 1 to 8 µM
- IC50 [3]: 1 to 8 µM
SMILES: CC(C)Cc1sc(Nc2ncc(-c3cccs3)cc2C(=O)O)nc1C1CCC(F)(F)CC1 [Compound I-29]
